Data on three compounds can be found in patent US20240082252A1, “COMPOSITIONS AND METHODS RELATING TO CANCER” (The Penn State Research Foundation, priority 2015, published 2024).

The subject of one series is C8161.C19 cells. Kind of series: cytotoxicity of pharmacological agents alone or combined (CellTiter 96), 48 hours. Particulars: for cell viability, single agents: 0.15 μM MK1775, 0.31 to 2.5 μM GDC0068, 1.25 to 10 μM AZD5363, FIG. 3E, 3G. It counts as cell-based. The protocol:
(§1) Cytotoxicity of these agents alone or in combination in melanoma cells was measured by plating 2.5 to 5×10^3 cells into 96-well plates followed by growth for 24 to 48 hours in a humidified 37° C. cell culture incubator. […] Control cells were treated with vehicle (DMSO) alone. Cytotoxicity was measured using the CellTiter 96 Aqueous Non-Radioactive Cell Proliferation Assay (Promega). The combined effects of MK1775 and GDC0068 were quantified using CalcuSyn software.

In series [1] the test system is UACC 903 human melanoma tumors. Kind of series: UACC 903 melanoma xenograft, oral drug treatment. Format: in vivo, athymic-Foxn1^nu nude mice. Conditions: MK1775 50 mg/kg, AZD5363 150 mg/kg, oral daily for 18 days; vs vehicle. The procedure:
Tumor kinetics studies were undertaken in athymic-Foxn1^nu nude mice (Harlan Laboratories, Indianapolis, IN, USA). In genetic knockdown models, siRNA targeting AKT3 and WEE1 alone or in combination was nucleofected into 1×10^6 UACC 903 or 1205 Lu cells as described above. Cells transfected with scrambled siRNA were used as a control. After plating and allowing the cells to recover for 48 hours, 1×10^6 cells were aliquoted in 0.2 ml of 10% FBS-DMEM and then injected subcutaneously above both the left and right rib cages of 4-6 week old female mice (3-4 mice/group). Dimensions of developing tumors were measured on alternate days, using calipers to estimate size by multiplying length, width and depth in mm^3. For pharmacological synergy studies, 1×10^6 UACC 903 cells were injected subcutaneously above both the left and right rib cages of 4-6 week old female mice. […] Drugs were prepared in 0.5% methylcellulose, 0.5% Tween 80, 5% DMSO and 200 uL administered per oral treatment.
At the end of the study, blood samples were collected from each mouse, serum was separated and levels of various toxicity markers were analyzed. All of the measured biomarkers in samples collected from mice were within the normal range which excludes any toxicity caused by these drugs. […]

A short description of series [2]: serum analysis of toxicity markers at end of study. Particulars: for CREA / BUN: kidney; for CREA: reference levels 0.1-0.3; for BUN: reference levels 18-33.7; for TBIL / ALB / SGPT (ALT) / ALKP: liver function; for TBIL: reference levels 0.1-0.9; for ALB: reference levels 2.5-4.8; for SGPT (ALT): reference levels 33-132, UACC 903 xenograft mice, oral daily; for ALKP: reference levels 62-209; for GLOB: no reference levels printed; for TP / CHOL / GLU: others; for TP: reference levels 3.6-6.6; for CHOL: reference levels 92-157; for GLU: reference levels 198-247; for AMYL: pancreas, reference levels 1691-3615. It counts as in vivo, mice. The protocol:
At the end of the study, blood samples were collected from each mouse, serum was separated and levels of various toxicity markers were analyzed. All of the measured biomarkers in samples collected from mice were within the normal range which excludes any toxicity caused by these drugs. Furthermore, visceral organs such as, heart, lungs, liver, intestine, spleen and kidney from each mouse were also collected, fixed in formalin and embedded in paraffin to assess any toxicity associated abnormality in cell morphology and tissue structure following hematoxylin and eosin staining.

For another series, the system named is UACC 903 melanoma cells. Kind of series: Western blotting of treated cells. Format: cell-based, human. Conditions: 1, 3 or 10 μM AZD5363, FIG. 5C; for phosphorylated CDK1 levels: 1 μM MK1775. The protocol:
Cell lysates were collected 48-96 hours after siRNA transfection or drug treatment by washing plates with PBS followed by addition of RIPA lysis buffer containing Halt Protease & Phosphatase Inhibitor Cocktail (Thermo Scientific, Rockford, IL, USA). Lysates were centrifuged (10,000×g) for 10 minutes at 4° C. to remove cell debris. Protein concentration was measured using the bicinchoninic acid assay kit (Thermo Scientific, Rockford, IL, USA). 25 μg of respective lysates were loaded onto 4-12% Bis-Tris NuPAGE gels (Life Technologies, Grand Island, NY) and run in an XCell SureLock Mini-Cell gel apparatus (Life Technologies, Grand Island, NY), transferred to polyvinylidene difluoride membranes (PVDF) (Pall Corporation, Port Washington, NY), probed with respective primary antibody followed by horseradish peroxidase-conjugated secondary antibody, and exposed using ECL Western Blotting Substrate (Thermo Scientific, Rockford, IL, USA) or Supersignal West Femto Chemiluminescent Substrate (Thermo Scientific, Rockford, IL, USA). Primary antibodies used: p21 (sc-756), p27 (sc-528), PLK1 (sc-17783), p53 (sc-6243) and ERK2 (sc-1647) from Santa Cruz Biotechnology (Dallas, TX), pAKT (S473 in AKT1, 5474 in AKT2 and 5472 in AKT3, #9271), AKT3 (#3788), Total AKT (#4685), pWEE1 (#4910), WEE1 (#4936), p-CDC2 (Y15) (#9111), p-CDC2 ([…]) (#9114), CDC2 (#9112) CHK1 (#2345), pCHK1 (#2344), pRB ([…]/811) (#9308), pRB ([…]) (#9301), pRB ([…]) (#9307), RB (#9309), FOXM1 (#5436), p-Histone H2AX (S139) (#2577) and Cleaved PARP (#9541) from Cell Signaling (Danvers, MA). Secondary antibodies goat anti-rabbit IgG-HRP (sc-2004) and goat anti-mouse IgG-HRP (sc-2005) were purchased from Santa Cruz Biotechnology, Dallas, TX.
Background: In western blotting, separated proteins are transferred to a membrane and probed.

Series [3] deals with UACC 903 cells. Kind of series: RNA sequencing, differentially expressed genes. It counts as cell-based, human. Conditions: 24 hours after treatment; intensity difference test p<0.05. The text has this: Twenty-four hours following treatment with tested agents, total RNA was extracted from UACC 903 cells using mirVana RNA isolation kit (Life Technologies, Grand Island, NY). Next, using SureSelect Strand Specific RNA Library Preparation kit (Agilent) cDNA libraries were constructed, polyA RNA was purified with oligo (dT) beads and then extracted RNA was processed through fragmentation, reverse transcription, end repair, 3′-end adenylation, adaptor ligation, PCR amplification and SPRI bead purification (Beckman Coulter). For multiplexed high-throughput sequencing, the unique barcode sequences were incorporated. Libraries were then denatured using the Illumina protocol, diluted with pre-chilled hybridization buffer and loaded onto TruSeq SR v3 flow cells on an Illumina HiSeq 2500 (50 cycles, single-read). Sequencing reads were extracted by using Illumina CASAVA pipeline Version 1.8 and aligned to the human reference genome (hg38) using Tophat (version 2.0.9) as described in detail in Trapnell et al, Bioinformatics 2009; 25(9): 1105-11. SeqMonk (version 0.32.0) was used for the identification of differentially expressed genes. Following RNA-Seq quantitation, 75% percentile normalization was performed and significant alterations were determined via intensity difference test with Benjamini and Hochberg multiple testing correction (p-value <0.05). […]

For series [4], the system named is 1205 Lu melanoma xenografts. Kind of series: 1205 Lu melanoma xenograft, oral drug treatment. Format: in vivo, Athymic-Foxnlnu nude mice. Conditions: for reduced growth of 1205 Lu xenograft / tumor development: AZD5363 150 mg/kg, MK1775 50 mg/kg, oral daily for 18 days, vs control, FIG. 4C; for reduced growth of 1205 Lu xenograft tumors: b.i.d.: AZD5363 130 mg/kg 4 days on/3 off, MK1775 30 mg/kg 3 days on/4 off, consecutive dosing in combination, 18 days, FIG. 4E. The procedure:
1205 Lu melanoma xenograft tumors were established by subcutaneous injection of 1×10^6 1205 Lu cells injected above both left and right rib cages of 4-6 week-old female Athymic-Foxnlnu nude mice (Harlan Sprague Dawley). Six days later, when a fully vascularized tumor had formed, mice were randomly divided into treatment groups described below. Body weight in grams and dimensions of developing tumors in mm^3 were measured on alternate days (1-6). Drugs were prepared in 0.5% methylcellulose, 0.5% Tween 80, 5% DMSO and […] administered per oral treatment.
Group 1 (vehicle control, 0.5% methylcellulose, 0.5% Tween 80, 5% DMSO) daily for 18 days;
Group 3 (MK1775, 50 mg/kg) daily for 18 days; and
Group 5 (vehicle control, 0.5% methylcellulose, 0.5% Tween 80, 5% DMSO) b.i.d. (twice a day) for 18 days;
Group 7, (MK1775, 30 mg/kg b.i.d. for 3 days on, 4 days off) for 18 days; and […]

Series [5] concerns UACC 903 cells. Kind of series: cytotoxicity of pharmacological agents alone or combined (CellTiter 96), 48 hours. Format: cell-based. Conditions: Homo sapiens, UACC-903, read-out: reduced cell viability. The procedure:
as §1

Turning to `NC1(C(=O)N[C@@H](CCO)c2ccc(Cl)cc2)CCN(c2ncnc3[nH]ccc23)CC1` [AZD5363], the “cell viability, single agents” value in the series with C8161.C19 cells is given as “reduced cell viability”. Further, in series [1], the “decrease in tumor size / tumor development” value is recorded as 36%. Besides, in series [2], the CREA is given as 0.1 ± 0^ mg/dL, the BUN is 25.8 ± 2.2 mg/dL, the TBIL is listed as 0.5 ± 0.1 mg/dL and the ALB amounted to 2.5 g/dL. Besides, in series [2], the “SGPT (ALT)” value was found to be 41.3 ± 7.4 u/L, the ALKP is listed as 86.3 ± 7.5 u/L, the GLOB stood at 2.6 ± 0.1 g/dL and the TP was determined as 5.1 ± 0.1 g/dL. In series [2], the CHOL turned out to be 113.5 ± 7.6 mg/dL, the GLU was 214 ± 30.6 mg/dL and the AMYL is on record as 1891 ± 129.7 U/L. Moreover, in the series with UACC 903 melanoma cells, the “phosphorylated CDK1 levels” value is “reduced the phosphorylation of CDK1 in a dose-dependent manner” and the “phosphorylated PRAS40 levels” value is recorded as “dose-dependently decreased phosphorylated PRAS40 levels”. Further, the “number of significantly deregulated genes” value in the series on UACC 903 cells [3] amounted to 64 genes. In series [4], the “reduced growth of 1205 Lu xenograft / tumor development” value is on record as around 50% and the “reduced growth of 1205 Lu xenograft tumors” value is recorded as around 30%.
Consider `CC(C)NC[C@@H](C(=O)N1CCN(c2ncnc3c2[C@H](C)C[C@H]3O)CC1)c1ccc(Cl)cc1` [GDC0068, ipatasertib], for which, in the series with C8161.C19 cells, the “cell viability, single agents” value is “reduced cell viability”.
As for `C=CCn1c(=O)c2cnc(Nc3ccc(N4CCN(C)CC4)cc3)nc2n1-c1cccc(C(C)(C)O)n1` [MK1775, 2-allyl-1-(6-(2-hydroxypropan-2-yl)pyridin-2-yl)-6-((4-(4-methylpiperazin-1-yl)phenyl)amino)-1H-pyrazolo[3,4-d]pyrimidin-3(2H)-one], in the series with UACC 903 cells [5], the cytotoxicity at 0.63 µM fell in the range of 35 to 40%. Further, in the series on C8161.C19 cells, the “cell viability, single agents” value is recorded as “reduced cell viability”. In addition, the relative single-agent activity entry in the series with C8161.C19 cells (C8161.C19 cell line) is reported as “significantly more effective”. For the same compound, the “decrease in tumor size / tumor development” value in series [1] is “ineffective”. Besides, in series [2], the CREA worked out at 0.1 ± 0 mg/dL, the BUN is given as 25.3 ± 1.9 mg/dL, the TBIL came out at 0.6 ± 0 mg/dL and the ALB came to 0.0026 ± 0.0001 g/dL. Also, in series [2], the “SGPT (ALT)” value is 55 ± 10.1 u/L, the ALKP worked out at 75 ± 5.6 u/L, the GLOB is recorded as 2.6 ± 0 g/dL and the TP was determined as 5.2 ± 0.1 g/dL. In addition, in series [2], the CHOL turned out to be 142.5 ± 4.6 mg/dL, the GLU worked out at 237.5 ± 31.4 mg/dL and the AMYL is on record as 2251.8 ± 50.2 U/L. Moreover, the “phosphorylated CDK1 levels” value in the series with UACC 903 melanoma cells is “decreased phosphorylated CDK1 levels”. Moreover, the “number of significantly deregulated genes” value with UACC 903 cells [3] is recorded as 94 genes. Moreover, in series [4], the “reduced growth of 1205 Lu xenograft / tumor development” value was around 50% and the “reduced growth of 1205 Lu xenograft tumors” value is listed as around 30%.
